The values below come from patent publication US10028999B2, “PAR-1 based therapeutic conjugates and uses thereof” (TEL HASHOMER MEDICAL RESEARCH INFRASTRUCTURE AND SERVICES …, priority 2014, dated 2018).

By IC50 is commonly meant the concentration at which inhibition is half-maximal. A low value points to greater potency in that assay. Usually inhibition stands for how much of the control response was suppressed.

Data set [1] relates to EAN rats (experimental autoimmune neuritis). Briefly: Electrophysiological tests in EAN rats treated with thrombin inhibitors. In kind it is in vivo, rat. On the procedure: (§1) Electrophysiological tests of the sciatic nerves were performed on day 32 PI (post-immunization/induction) in EAN model (FIGS. 3A-C) and 8 weeks after STZ induction (FIG. 4A-C). Rats were anesthetized with Phenobarbital (IP, 24 mg/kg). Two pairs of monopolar needle electrodes were used to stimulate the tail nerves. Stimulating cathodes were inserted to a depth of 4-5 mm at the base of the tail and 4 cm distally. An anode at each location was inserted into the skin (4-5 mm depth) 1 cm proximal to the cathode. A ground electrode was placed between the distal stimulating electrode and the active recording electrode. Electromyography (EMG) recordings of responses of the tail muscles to proximal and distal stimuli, made by a pair of ring electrodes coated with electrode jelly and placed 1 cm distally to the distal stimulating electrode, were collected. The tail skin was wiped with alcohol prior to placing the electrodes. […] Both proximal and distal latencies were measured using time intervals from the stimulus artifact to the first deflection from baseline. To calculate the motor nerve conduction velocity (MNCV), the distance between stimulating cathodes was divided by the latency difference. Amplitudes of the compound muscle action potential (CMAP) from both proximal and distal stimulations were measured from the negative to the positive peaks. The reduction of the proximal CMAP compared with that of the distal CMAP was calculated by the equation: [(distal CMAP-proximal CMAP)/distalCMAP×100] and was defined as the R ratio. Temperature differences were minimized by conducting the study as soon as the anesthesia had taken effect and by warming the tail with a heating lamp.
(§2) FIGS. 3 and 4 each include 3 graphs summarizing the results from electrophysiological tests of treated rats, as follows: distal latency (3A, 4A) referring to the time, in milliseconds, between distal stimulation to recording; conduction velocity (3B, 4B) referring to the distance over time, in meters/seconds; and amplitude (3C, 4C) referring to the size of the response as measured in millivolts.

For data set [2], the system named is STZ-induced diabetic rats. Nature of the data set: Electrophysiological tests in STZ-induced diabetic rats treated with thrombin inhibitors. It is filed as in vivo, rat. The conditions noted are these: STZ rats. On the procedure:
as §1, §2

Data set [3] deals with C6 glioma cells. Nature of the data set: Thrombin-like activity in C6 glioma cell line. It is filed as cell-based. The conditions noted are these: four hours after treatment.
The subject of data set [4] is CNS-1 glioma cells. On the procedure: The thrombin-like activity of CNS-1 cells was initially measured in control cells and in cells treated with (i) the short peptide conjugate (tosyl-DPR-CK, corresponding to a conjugate that includes the peptide termed 3AA) or (ii) the long conjugate (tosyl-NATLDPR-CK, corresponding to a conjugate that includes the peptide termed 7AA (SEQ ID No. 4)) at high ([…]) and low (100 nM) concentrations (FIG. 16).

Data set [5] deals with CNS-1 glioma cells. Nature of the data set: Proliferation (XTT) of CNS-1 glioma cells. It is filed as cell-based, rat. The following applies: CNS-1 cells; for inhibition of cell proliferation: XTT, 48 hours. On the procedure:
(§3) Several peptide moieties (Table 1) according to the present invention were synthesized. Proliferation was measured, by means of XTT, in C6 and CNS-1 glioma cell-lines (FIGS. 8A and 8B, respectively). In C6 cells, proliferation was measured before (black bar) and after cells were treated with the PAR-1 antagonist SCH79797 at various doses ranging from 10 nM to 10 μM (grey bars; FIG. 8A).
In another set of experiments, CNS-1 glioma cell-line was treated with increased doses of TLCK (125 nM to 14 mM), for 48 hours (FIG. 9; grey bars). Proliferation was measured by means of XTT in comparison to non-treated cells (control; black bar).
Initially, CNS-1 glioma cells were treated with increased concentrations of two peptide conjugates: a short conjugate of the formula tosyl-DPR-CK (comprising 3 amino acids, 3AA) or a long conjugate of the formula tosyl-NATLDPR-CK (comprising 7 amino acids, 7AA; SEQ ID NO: 4) in concentrations of 100 pM, 1 nM and 10 nM, for 48 hours (FIG. 10). FIG. 10 provides the results of an XTT assay used for assessing cell proliferation.
The effect of the peptide conjugate alone, or in combination with PAR-1 antagonist, SCH79797, on cell proliferation was determined in comparison to untreated cells or cells treated with PAR-1 antagonist (FIG. 13).

Data set [6] concerns blood coagulation (prothrombin time). Briefly: Prothrombin time test. In kind it is biochemical. The following applies: for PT: without conjugate 11.5; for Potency score in PT test: most potent (1) to least potent (5).
The subject of the next data set is blood coagulation (aPTT). Nature of the data set: Activated partial thromboplastin time test. In kind it is biochemical. The following applies: for aPTT: without conjugate 30.5; for Potency score in aPTT test: most potent (1) to least potent (5).
The subject of the next data set is thrombin. Briefly: Thrombin time test. The following applies: for TT: without conjugate 13.4; for Potency score in TT test: most potent (1) to least potent (5). It is filed as biochemical.
For another data set, the system named is Factor Xa. Briefly: Factor Xa activity test. In kind it is biochemical. The conditions noted are these: for Fxa: without conjugate 0.11; for Potency score in Factor Xa activity test: most potent (1) to least potent (5).
A further data set deals with Protein C (Homo sapiens, UniProt P04070). Nature of the data set: Protein C activity test. It is filed as biochemical. The following applies: for aPC: without conjugate 109; for Potency score in Protein C activity test: most potent (1) to least potent (5).
Protein C, sequence (P04070 212-461 limits assumed): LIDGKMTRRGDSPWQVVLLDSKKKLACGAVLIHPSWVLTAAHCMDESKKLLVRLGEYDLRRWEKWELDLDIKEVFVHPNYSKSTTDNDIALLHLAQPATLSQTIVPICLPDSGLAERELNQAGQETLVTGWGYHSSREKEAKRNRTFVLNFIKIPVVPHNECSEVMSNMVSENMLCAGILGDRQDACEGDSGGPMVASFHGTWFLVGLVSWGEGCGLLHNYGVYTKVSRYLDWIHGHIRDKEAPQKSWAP
Protein C, sequence (P04070 43-197 partner limits assumed): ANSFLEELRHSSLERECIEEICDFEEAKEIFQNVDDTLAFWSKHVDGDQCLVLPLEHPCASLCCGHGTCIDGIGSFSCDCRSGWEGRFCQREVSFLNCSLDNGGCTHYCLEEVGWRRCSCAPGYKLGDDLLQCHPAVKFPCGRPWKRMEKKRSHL
Another data set in a line: in vivo. The following applies: ip, 2 micromolar, in 100 ul.
Data set [7] concerns STZ-induced diabetic BALB/c mice. Nature of the data set: Sciatic nerve conduction velocity in STZ diabetic neuropathy mice. It is filed as in vivo. The following applies: daily 100 microliter of 10 nM, p=0.016, listed as T5AACK. The method, then: The conduction velocity of sciatic nerves derived from an animal model of diabetes (streptozotocine (STZ)-induced diabetes; FIG. 20) was measured in mice treated daily with sham (STZ), or with the active drug TLDPR (peptide 5AA; SEQ ID NO: 2) nested between N alpha-tosyl and chloromethyl ketone, namely […] (termed hereinafter T5AACK) injected in 100 microliter of 10 nM, 100 nM and 1 micromolar.
Conduction velocities in the sciatic nerves of the mice were assessed by standard electrophysiology nerve conduction methods by a blind assessor. The nerve conduction studies were carried out one month after the induction of diabetes. A group of normal mice without diabetes served as controls. All STZ treated mice developed severe diabetes.
Streptozotocyn (STZ) was dissolved in citrate buffer pH 4.5 and a single dose of STZ was administered IP (140 mg/kg) to 12 weeks BALB/c mice. […] Mice developed diabetic neuropathy developed within 4 weeks after the induction of diabetes. […]
Conduction velocities in the sciatic nerves of the mice were assessed by standard electrophysiology nerve conduction methods by a blind assessor (FIG. 19).

The subject of data set [8] is C6 glioma cells. Briefly: Proliferation (XTT) of C6 glioma cells. It is filed as cell-based. The following applies: 10 nM to 10 μM. The method, then: as §3
Background: Formazan colour is commonly taken as a measure of viable cells.

The structures appear in SMILES notation. Peptide text beside a SMILES is read from it. * marks the point of attachment. Tos = Cc1ccc(S(=O)(=O)*)cc1; CH2Cl = ClC*

Procedure for in vivo: The concentrations of the peptide conjugates in the plasma of animals treated therewith was evaluated by a unique method that was based on the ability of the peptide conjugates to inhibit thrombin activity. […] The essay initiated by obtaining blood samples from animals which received the peptide conjugates (100 microliter containing 2 micromolar, i.p.). The blood samples, after being maintained in citrate buffered sample tubes, were subjected to centrifugation for plasma separation. Samples were then filtered through a membrane with a 10 kD molecular weight cutoff which excluded all blood coagulation factors (by addition of calcium to neutralize the anticoagulation effect of the citrate buffer). Coagulation factor-free plasma samples were then applied to the thrombin activity assay.
The resulting thrombin activities in each plasma sample either diluted (×10) or as is were given in arbitrary units (FIGS. 18-18D, diagonal shading and dotted bars, respectively). However, the actual concentration were deduced by comparing the activities to calibrated activities generated with known concentrations of the conjugate peptides. The calibration data included the following thrombin activities: activity in a sample of thrombin in the absence of plasma and conjugates (black bars, FIGS. 18A-18D); and activity in four samples of thrombin and known concentrations of the peptide conjugates (10 nM, 100 nM, 1 micromolar and 10 micromolar; bars 2nd to 5th from right in FIGS. 18A-18D).

Take `N=C(N)c1ccc(CC(NC(=O)CNS(=O)(=O)c2ccc3ccccc3c2)C(=O)N2CCCCC2)cc1` (racemic) [NAPAP, Na-(2-naphthyl-sulphonyl-glycyl)-DL-p-amidinophenylalanyl-piperidine]: the conduction velocity in data set [1] (daily treatment for 2 weeks, TLCK 4.4 mg/kg, NAPAP 120 μM/kg, untreated EAN 23.6±1.2) is 36.05±3.57 m/sec; in [2] (daily treatment for 2 weeks, TLCK 4.4 mg/kg, NAPAP 120 μM/kg, untreated STZ 28.5±2.8), 40.1±2.7 m/sec. The proximal amplitude in data set [1] (untreated EAN 0.76±0.33, non-significant) was 0.83±0.4 millivolts; in [2] (untreated STZ 0.48±0.13, insignificant) it was 1.68±0.64 millivolts. For the same compound, the latency was 1.32 ± 0.33 ms in data set [1] (untreated EAN 1.43±0.023, control 0.54±0.03) and 1.676 ± 0.132 ms in data set [2] (untreated STZ 1.93±0.139, control 1.29±0.057). For the same compound, the thrombin-like activity entry in the data set on C6 glioma cells [3] is reported as “inhibited”.
As for `Cc1ccc(S(=O)(=O)N[C@@H](CC(=O)O)C(=O)N2CCC[C@H]2C(=O)N[C@@H](CCCNC(=N)N)C(=O)CCl)cc1` [3AA, tosyl-DPR-CK] (Tos-Asp-Pro-Arg-CH2Cl), 0.007 nM corresponded to half-maximal inhibition with CNS-1 glioma cells [4] (IC50). Moreover, the “inhibition of cell proliferation” value in the data set on CNS-1 glioma cells [5] (1 nM) is recorded as “significant inhibition of cell proliferation”; with CNS-1 glioma cells [5] (10 nM), “higher inhibition”. Further, the figures for the PT in [6] (10 nM), in data set [6] (1 μM) and in data set [6] (100 μM) were 11.5 s, 12.3 s and “FAILED”, respectively. Moreover, the “Potency score in PT test” value in data set [6] (100 μM) was 1. For the same compound, the aPTT stood at 30 s in the data set with blood coagulation (aPTT) (10 nM), 38.1 s in the data set on blood coagulation (aPTT) (1 μM) and 150 s in the data set on blood coagulation (aPTT) (100 μM). Also, the “Potency score in aPTT test” value in the data set with blood coagulation (aPTT) (100 μM) came out at 1. Moreover, the TT in the data set with thrombin (10 nM) was 14.1 s; in the data set on thrombin (1 μM) it was above 80 s; in the data set on thrombin (100 μM), above 80 s. Besides, in the data set with thrombin (1 μM), the “Potency score in TT test” value worked out at 1. Further, the values for the Fxa with Factor Xa (1 μM) and in the data set on Factor Xa (100 μM) were 0.21 and “FAILED”, respectively. In the data set on Factor Xa (100 μM), the “Potency score in Factor Xa activity test” value is reported as 1. Moreover, the aPC is on record as 107 on Protein C (1 μM) and “FAILED” on Protein C (100 μM). In addition, the “Potency score in Protein C activity test” value at Protein C (100 μM) came out at 1. Moreover, the “effect on coagulation, overall” value in the data set on blood coagulation was “significantly more deleterious effects on coagulation”. Also, the level at time molar in the data set “in vivo” is around 1000 nM.
In the data set with CNS-1 glioma cells [4], `Cc1ccc(S(=O)(=O)N[C@H](C(=O)N[C@@H](CC(C)C)C(=O)N[C@@H](CC(=O)O)C(=O)N2CCC[C@H]2C(=O)N[C@@H](CCCNC(=N)N)C(=O)CCl)[C@@H](C)O)cc1` [5AA, tosyl-TLDPR-CK] (Tos-TLDPR-CH2Cl) gave an IC50 of 0.7 nM. Moreover, the results for the PT in data set [6] (10 nM), in [6] (1 μM) and in data set [6] (100 μM) were 12.1 s, 11.5 s and 14.5 s, respectively. Moreover, the “Potency score in PT test” value in [6] (100 μM) is listed as 4. Besides, the aPTT in the data set on blood coagulation (aPTT) (10 nM) worked out at 30.1 s; in the data set with blood coagulation (aPTT) (1 μM) it was 30.5 s; with blood coagulation (aPTT) (100 μM), 63.9 s. Further, the “Potency score in aPTT test” value with blood coagulation (aPTT) (100 μM) was found to be 4. In addition, the results for the TT with thrombin (10 nM), with thrombin (1 μM) and in the data set on thrombin (100 μM) were 13.8 s, 17.8 s and above 80 s, respectively. Further, the “Potency score in TT test” value in the data set on thrombin (1 μM) was 4. In the data set on Factor Xa (100 μM), the “Potency score in Factor Xa activity test” value is 4. The same compound displayed a Fxa in the data set with Factor Xa (100 μM) of 0.13. In addition, the aPC on Protein C (1 μM) was 109; at Protein C (100 μM) it was 20. The “Potency score in Protein C activity test” value at Protein C (100 μM) is given as 3. In [7], the “sciatic nerve conduction velocity relative to sham treated mice” value is reported as “followed a similar trend”. For the same compound, the level at time molar in the data set “in vivo” is below 10 nM.
Regarding `CC(C)c1ccc(Cn2ccc3c4c(N)nc(NC5CC5)nc4ccc32)cc1.Cl.Cl` [SCH79797, N3-Cyclopropyl-7-[[4-(1-methylethyl)phenyl]methyl]-7H-pyrrolo[3,2-f]quinazoline-1,3-diamine dihydrochloride, reference compound], the proliferation entry in the data set on C6 glioma cells [8] is “inhibited proliferation in a dose-dependent manner”. Also, the inhibition at 1 µM with CNS-1 glioma cells [5] (Rattus norvegicus, Glioma cell, 1 μM, alone) was determined as 25%.
